Laboratory results taken from patent publication US8536168B2 (Novartis AG, priority 2007, dated 2013).
Read-outs that look alike come from different tables or passages of the source.

Assays:
Gli-luciferase activity = assay: Reporter gene assay (RGA) in TMHh12 cells, antagonism of Gli-luciferase activity in the presence of a Smo agonist; type: cell-based
Experimental: Activity of the compounds was evaluated using a reporter gene assay (RGA) in TMHh12 cells.

[1] = biological target: mouse Smoothened receptor (Mus musculus, UniProt P56726); assay: Smo binding assay, displacement of radio-labeled smoothened agonist, filter binding format (mouse); details: displacement of small molecule agonist of Smoothened, read-out: Mouse Smo bdg., IC50
From the text: A Smo binding assay was developed using radio-labeled smoothened agonist for compound competition.

[2] = 25 nM small molecule Smo agonist, read-out: RGA (25 nM Smo agonist) IC50
[3] = read-out: RGA (1 nM Smo agonist) IC50, 1 nM small molecule Smo agonist

mouse Smoothened receptor, sequence (P56726 33-793): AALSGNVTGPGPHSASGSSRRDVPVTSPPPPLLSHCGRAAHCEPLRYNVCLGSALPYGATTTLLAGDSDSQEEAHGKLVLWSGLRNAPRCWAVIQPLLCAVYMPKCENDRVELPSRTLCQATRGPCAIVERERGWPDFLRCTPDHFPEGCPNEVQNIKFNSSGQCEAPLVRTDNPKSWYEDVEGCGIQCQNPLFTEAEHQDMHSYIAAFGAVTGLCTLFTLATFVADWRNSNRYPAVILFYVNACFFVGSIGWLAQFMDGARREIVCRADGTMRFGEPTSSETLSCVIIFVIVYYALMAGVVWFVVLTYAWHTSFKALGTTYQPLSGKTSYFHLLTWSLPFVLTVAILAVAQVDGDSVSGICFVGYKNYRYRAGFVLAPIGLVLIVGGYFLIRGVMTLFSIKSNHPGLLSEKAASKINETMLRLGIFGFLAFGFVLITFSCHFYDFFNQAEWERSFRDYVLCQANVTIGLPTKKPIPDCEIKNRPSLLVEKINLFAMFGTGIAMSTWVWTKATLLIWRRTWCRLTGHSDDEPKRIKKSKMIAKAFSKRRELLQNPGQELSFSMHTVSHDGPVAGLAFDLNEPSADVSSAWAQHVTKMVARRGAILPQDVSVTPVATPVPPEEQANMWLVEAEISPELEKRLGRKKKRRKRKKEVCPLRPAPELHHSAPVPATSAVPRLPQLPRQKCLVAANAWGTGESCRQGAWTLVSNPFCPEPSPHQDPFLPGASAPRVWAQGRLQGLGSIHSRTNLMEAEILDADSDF

| SMILES | IC50 (Gli-luciferase activity; [2]) [nM] | IC50 (Gli-luciferase activity; [3]) [nM] | IC50 [1] [nM] |
| --- | --- | --- | --- |
| O=C(c1ccc(N2CCN(c3nnc(Cc4ccccc4)c4ccccc34)CC2)nc1)N1CCC(O)C1 (centres unmarked) [Example 54o] | 100 to 1000 | < 100 | 100 to 1000 |
| CN(CCO)C(=O)c1ccc(N2CCN(c3nnc(Cc4ccccc4)c4ccccc34)CC2)nc1 [Example 54c, 6-[4-(4-Benzyl-phthalazin-1-yl)-piperazin-1-yl]-N-(2-hydroxy-ethyl)-N-methyl-nicotinamide] | 100 to 1000 | < 100 | 100 to 1000 |
| CC(C)(C)c1ccc(N2CCN(c3nnc(Cc4cc(Cl)cc(Cl)c4)c4ccccc34)CC2)nc1 [Example 9] | 100 to 1000 | < 100 | < 100 |
| CN(C)C(=O)c1ccc(N2CCN(c3nnc(Cc4ccc(F)cc4F)c4ccccc34)CC2)nc1 [Example 202] | 100 to 1000 | < 100 | < 100 |
| O=C(NCc1ccccc1)c1ccc(N2CCN(c3nnc(Cc4ccccc4)c4ccccc34)CC2)nc1 [Example 54l] | 100 to 1000 | < 100 | < 100 |
| O=C(NCC1CCCCC1)c1ccc(N2CCN(c3nnc(Cc4ccccc4)c4ccccc34)CC2)nc1 [Example 54m] | 100 to 1000 | < 100 | < 100 |
| CN(C)CCNC(=O)c1ccc(N2CCN(c3nnc(Cc4ccccc4)c4ccccc34)CC2)nc1 [Example 54h] | 100 to 1000 | 100 to 1000 | – |
| Cc1ccc(N2CCN(c3nnc(Cc4ccnc(C)c4)c4ccccc34)CC2C)cc1 (centres unmarked) [Example 29] | 10000 to 40000 | 1000 to 10000 | 10000 to 40000 |
| O=C(NCCO)c1ccc(N2CCN(c3nnc(Cc4ccccc4)c4ccccc34)CC2)nc1 [Example 54e] | 100 to 1000 | < 100 | 100 to 1000 |
| CCN1CCOc2cc3c(cc21)Oc1cc2c(cc1=N3)OCC[N+]=2CCCCCC(=O)NCc1ccc(N2CCN(c3nnc(Cc4ccccc4)c4ccccc34)CC2)nc1 [Example 74] | 100 to 1000 | < 100 | – |

Second part, the molecule after the results:

| IC50 (Gli-luciferase activity; [2]) [nM] | IC50 (Gli-luciferase activity; [3]) [nM] | IC50 [1] [nM] | SMILES |
| --- | --- | --- | --- |
| 1000 to 10000 | 100 to 1000 | 1000 to 10000 | c1ccc2c(N3CCN(c4nnc(Cc5ccncc5)c5ccccc45)CC3)cccc2c1 [Example 36] |
| 1000 to 10000 | 100 to 1000 | 100 to 1000 | NCc1ccc(N2CCN(c3nnc(Cc4ccccc4)c4ccccc34)CC2)cc1 [Example 73] |
| 1000 to 10000 | < 100 | 100 to 1000 | c1ccc(Cc2nnc(N3CCN(c4ncccn4)CC3)c3ccccc23)cc1 [Example 25] |
| 10000 to 40000 | 1000 to 10000 | – | c1ccc(N2CCN(c3nnc(Cc4ccncc4)c4ccccc34)CC2)cc1 [Example 6] |
| 10000 to 40000 | 1000 to 10000 | 10000 to 40000 | CC(=O)NCc1ccc(N2CCN(c3nnc(Cc4ccncc4)c4ccccc34)CC2)cc1 [Example 76] |
| 100 to 1000 | 100 to 1000 | 100 to 1000 | CC(=O)Nc1ccc(N2CCN(c3nnc(Cc4ccccc4)c4ccccc34)CC2)nc1 [Example 236] |
| 1000 to 10000 | 1000 to 10000 | 1000 to 10000 | c1ccc(C2CCN(c3nnc(Cc4ccncc4)c4ccccc34)CC2)cc1 [Example 13] |
| 1000 to 10000 | 1000 to 10000 | 10000 to 40000 | Cc1ccccc1N1CCN(c2nnc(Cc3ccccc3)c3ccccc23)CC1 [Example 38] |
| 1000 to 10000 | 1000 to 10000 | 10000 to 40000 | c1ccc(Cc2nnc(N3CCC(c4ccccc4)CC3)c3ccccc23)cc1 [Example 12] |
| 10000 to 40000 | 1000 to 10000 | 1000 to 10000 | O=C(NCc1ccc(N2CCN(c3nnc(Cc4ccncc4)c4ccccc34)CC2)cc1)OCc1ccccc1 [Example 78] |
| 1000 to 10000 | 1000 to 10000 | 1000 to 10000 | Cc1ccc(N2CCN(c3nnc(Cc4ccncc4)c4ccccc34)CC2C)cc1 (centres unmarked) [Example 28] |
| 100 to 1000 | < 100 | – | NCc1ccc(N2CCN(c3nnc(Cc4ccccc4)c4ccccc34)CC2)nc1 [Example 71] |
